Patent US20090104122A1, “DETECTION OF MEMBRANE ANDROGEN RECEPTOR (mAR) AGENTS” (priority 2006, published 2009)
Numbered stars: 1 amine (or outer) side, 2 acyl side, 3 side chain; on linkers, the order of the positions; unused ones are H or OH. Bridge positions count the residues as written; N and C are the ends. Square brackets hold non-standard residues; d marks the D form. Peptide text beside a SMILES is read from it. ξ: configuration not given here. ξTrp(2-yl) = O=C(C(Cc1c([*:3])[nH]c2ccccc12)N[*:1])[*:2]; X1 = CC(O)(CO)CC(N[*:1])C(=O)[*:2]; ξAsp(3ξ-OH) = NC(C(=O)O)C(O)C(=O)O; Hyp = O=C(O)[CH]1C[CH](O)CN1

How the values were obtained:
DU145 cells [1] = test: Quantitative measurement of apoptosis (APOPercentage Apoptosis Assay); assay type: cell-based, human; details: for effect on testo-BSA induced apoptotic response: DU145 cells, signaling inhibitors; for effect on apoptotic response of DU145 cells treated with Testo-BSA: 10^-6 M, agents blocking actin reorganization
Source text: In order to analyze a possible cross-talk between actin cytoskeleton reorganization and apoptosis upon mABS activation, we studied the apoptotic response of DU145 cells in the presence of specific agents blocking actin reorganization. […] The FACS analysis fully supported these observations. […] This assumption is in line with previously published data, showing that actin reorganization is an important signaling step, regulating NFkB translocation and transcriptional regulation of TNFα induced anti-apoptotic response (Papakonstanti and Stounaras, Mol Biol Cell, 2004).
The APOPercentage Apoptosis Assay (Biocolor Ltd., Belfast, N. Ireland) was used to quantify apoptosis, according to manufacturer's instructions. This kit uses a dye that stains red the apoptotic cells undergoing the membrane “flip-flop” event when phosphatidylserine is translocated to the outer leaflet. Detection of apoptosis can be readily observed under inverted microscopy. For apoptosis quantitation, the amount of dye within the labeled cells can subsequently be released into solution and the concentration measured at a wavelength of 550 nm (reference filter 620 nm) using a color filter microplate […] (Dynatech MicroElisa reader Chantilly, Va.).

DU145 cells [2] = test: Immunoblot analysis of Triton-soluble and insoluble actin (actin polymerization); assay type: cell-based, human; details: DU145 cells activated with testosterone-BSA
Source text: There has been recognition that activation of mAR sites in LNCaP human prostate cancer cells results within minutes, in a significant rearrangement of the actin cytoskeleton, as indicated by the potent actin polymerization and microfilament reorganization (Kampa et al 2002). Using both, non-permeable testosterone analogs and specific inhibitors or antagonists of the intracellular androgen receptors (iAR), we provided strong evidence that in LNCaP cells this phenomenon was induced through the activation of the mARs. […] These quantitative results were fully supported by confocal laser scanning microscopic analysis of the actin cytoskeleton in testo-BSA treated DU145 cells. Indeed, a complete submembranous redistribution of the microfilamentous structures became evident within 10 minutes and persisted for at least 2 hours, as shown in FIGS. 3A-C.
The Triton-soluble proteins were precipitated with equal amounts of 6% perchloric acid (PCA). The Triton-insoluble fractions were precipitated with 1 ml of 3% PCA. Equal volumes of each fraction were subjected to SDS electrophoresis and proteins were transferred to a nitrocellulose membrane, using the LKB electrophoresis apparatus (LKB, Bromma, Sweden). […] Blots were developed using the enhanced chemiluminescence system, and the band intensities were quantitated by PC-based image analysis (Image Analysis, Inc., Ontario, Canada).

[3] = test system: LNCaP-inoculated nude mice; test: In vivo tumor growth in LNCaP-inoculated nude mice; details: 8 mg/kg weight for one month, compared to control animals
RhoA = RhoA activation after mAR activation; assay type: cell-based, human; details: 10^-7 M, DU145 cells
Source text: Looking for an alternative mechanism mediating the non-genomic testosterone signaling in DU145 cells we analyzed a possible rapid activation of Rho-GTPase's. Indeed, among the signaling effectors that regulate such processes of actin reorganization, the best understood are small GTPases of the Rho family. Classically, plasma membrane receptors activate specific guanine exchange factors (GEFs) often via phosphorylation, which leads to subsequent loading of Rho GTPases with GTP. Active Rho GTPases continue signal transmission towards Rho coiled-coiled kinase 1 (ROCK1) and/or p21-activated kinase 1 (Pak1). Activated […] phosphorylate and activate Lim-kinases 1 and 2 (Limk1 and Limk2) respectively. Limk1 and Limk2 are closely related proteins composed of two N-terminal Lim domains and a C-terminal kinase domain. The Lim domains are protein-binding motifs frequently found in cytosolic proteins that interact with the actin cytoskeleton. Eventually, Limk1 and Limk2 phosphorylate actin-depolymerizing proteins such as cofilin and actin-depolymerizing factor (ADF), which are inactivated and thus permit actin polymerization to occur. […] To further analyze the downstream effector of RhaA activation, DU145 cells, activated with testo-BSA were treated with the specific ROCK inhibitor Y27632 and actin redistribution was documented quantitatively using the G/Total-actin ratio.

DU-145 cells = test: Cell migration, adhesion and invasion after mAR activation; assay type: cell-based, human
Source text: (§1) This contact induced significant actin remodelling followed by a decrease in cell migration, adhesion and invasion. […] Activation of the pathway induced signaling and actin reorganization. The pathway is not activated in LNCAP cells. […] This effect was not observed with the anti-androgen flutamide.

FAK/PI-3K/Rac1 pathway = test: FAK/PI-3K/Rac1 signaling after mAR activation; assay type: cell-based, human; details: DU145 cells, FAK constitutively phosphorylated
Source text: Indeed, as shown in FIGS. 5A-B, FAK was constitutively phosphorylated in DU145 cells. […] These findings imply the existence of an alternative non-genomic signaling cascade regulating the rapid actin reorganization shown in FIGS. 2A-B.

[4] = test system: prostate-specific antigen (PSA); details: within minutes; cited from earlier work
LNCAP cells = test: Induction of apoptosis in LNCaP cells; assay type: cell-based, human
Source text: as §1

C[C@@H](N)[C@H]1CC[C@H](C(=O)Nc2ccncc2)CC1 [Y27632]
effect on testo-BSA induced apoptotic response (DU145 cells [1]): abrogating | effect on testosterone-induced rapid actin polymerization (DU145 cells [2]): totally inhibited

C=C1[C@@H](C)[C@H]2[C@H](Cc3ccccc3)NC(=O)[C@]23OC(=O)/C=C/[C@H](O)CCC[C@@H](C)C/C=C/[C@H]3[C@@H]1O [cytochalasin B]
effect on apoptotic response of DU145 cells treated with Testo-BSA (DU145 cells [1]): clear inhibition

CC1NC(=O)C2CC(O)CN2C(=O)C2CSc3[nH]c4ccccc4c3CC(NC1=O)C(=O)NC(CC(C)(O)CO)C(=O)NC(C(C)C)C(=O)NC(C(O)C(=O)O)C(=O)N2 (stereo not drawn) [phallacidin] (cyclo([ξAsp(3ξ-OH)]C[Hyp]A[ξTrp(2-yl)][X1]V); thioether 2-5; configuration not given here)
effect on apoptotic response of DU145 cells treated with Testo-BSA (DU145 cells [1]): clear inhibition

COC[C@H]1OC(=O)c2coc3c2[C@@]1(C)C1=C(C3=O)[C@@H]2CCC(=O)[C@@]2(C)C[C@H]1OC(C)=O [wortmannin]
effect on testo-BSA induced apoptotic response (DU145 cells [1]): no effect | effect on testosterone-induced rapid actin polymerization (DU145 cells [2]): no effect

testosterone 3-(O-carboxymethyl)oxime:BSA [testosterone-BSA]
induction of apoptosis (DU145 cells [1]): induced apoptosis | reduction of tumor-size [3]: 60% | persistence of RhoA activation (RhoA): up to two hours | time of maximum RhoA activation (RhoA): 30 min | time to activation of RhoA (RhoA): ≤ 3 min | cell migration, adhesion and invasion (DU-145 cells): decrease | FAK phosphorylation (FAK/PI-3K/Rac1 pathway): neither apparent additional FAK phosphorylation could be documented | secretion of prostate-specific antigen (PSA) [4]: increase | induction of apoptosis (LNCAP cells): induced apoptosis
